According to PubChem BioAssay (NCI):
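Assay format: 96-well plates, 48-hour exposure. The concentration for 50% growth inhibition is given as GI50. TGI: total growth inhibition.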

Key:
Experiment in all cases: growth of human tumour cells (NCI), 48 h
UACC-62 melanoma = test system: UACC-62 melanoma
SK-MEL-2 melanoma = test system: SK-MEL-2 melanoma
HCT-116 colon = test system: HCT-116 colon
OVCAR-8 ovarian = test system: OVCAR-8 ovarian
HOP-62 NSCLC = test system: HOP-62 NSCLC
A498 renal = test system: A498 renal
SNB-75 CNS = test system: SNB-75 CNS
NCI/ADR-RES ovarian = test system: NCI/ADR-RES ovarian
K-562 leukemia = test system: K-562 leukemia
CAKI-1 renal = test system: CAKI-1 renal
COLO 205 colon = test system: COLO 205 colon
M14 melanoma = test system: M14 melanoma
OVCAR-4 ovarian = test system: OVCAR-4 ovarian
HCC-2998 colon = test system: HCC-2998 colon
SN12C renal = test system: SN12C renal
PC-3 prostate = test system: PC-3 prostate
LOX IMVI melanoma = test system: LOX IMVI melanoma
MOLT-4 leukemia = test system: MOLT-4 leukemia
NCI-H226 lung = test system: NCI-H226 lung
KM12 colon = test system: KM12 colon
SK-OV-3 ovarian = test system: SK-OV-3 ovarian
A549 NSCLC = test system: A549 NSCLC
U251 CNS = test system: U251 CNS
RPMI-8226 leukemia = test system: RPMI-8226 leukemia
UO-31 renal = test system: UO-31 renal
OVCAR-5 ovarian = test system: OVCAR-5 ovarian
SF-539 CNS = test system: SF-539 CNS
SNB-19 CNS = test system: SNB-19 CNS
MDA-MB-231 breast = test system: MDA-MB-231 breast
OVCAR-3 ovarian = test system: OVCAR-3 ovarian
NCI-H522 lung = test system: NCI-H522 lung
786-0 renal = test system: 786-0 renal
RXF 393 renal = test system: RXF 393 renal
SK-MEL-5 melanoma = test system: SK-MEL-5 melanoma
UACC-257 melanoma = test system: UACC-257 melanoma
MALME-3M melanoma = test system: MALME-3M melanoma
HS 578T breast = test system: HS 578T breast
SW-620 colon = test system: SW-620 colon
CCRF-CEM leukemia = test system: CCRF-CEM leukemia
NCI-H23 lung = test system: NCI-H23 lung
SK-MEL-28 melanoma = test system: SK-MEL-28 melanoma
HT29 colon = test system: HT29 colon
ACHN renal = test system: ACHN renal
MCF7 breast = test system: MCF7 breast
HOP-92 NSCLC = test system: HOP-92 NSCLC
HL-60(TB) leukemia = test system: HL-60(TB) leukemia
T-47D breast = test system: T-47D breast
MDA-MB-435 = test system: MDA-MB-435
HCT-15 colon = test system: HCT-15 colon
SF-268 CNS = test system: SF-268 CNS
NCI-H460 lung = test system: NCI-H460 lung
DU-145 prostate = test system: DU-145 prostate
IGROV1 ovarian = test system: IGROV1 ovarian
TK-10 renal = test system: TK-10 renal
BT-549 breast = test system: BT-549 breast
SF-295 CNS = test system: SF-295 CNS
EKVX NSCLC = test system: EKVX NSCLC
SR leukemia = test system: SR leukemia

## O=C1C=CC2(O)OC/C(=C\c3ccccc3)C(O)=C2C1=O (stereo not given)
UACC-62 melanoma
  GI50: 1.51 µM
  TGI: 3.76 µM
SK-MEL-2 melanoma
  GI50: 2.02 µM
  TGI: 5.77 µM
HCT-116 colon
  GI50: 1.88 µM
  TGI: 4.08 µM
OVCAR-8 ovarian
  GI50: 2.71 µM
  TGI: 10.3 µM
HOP-62 NSCLC
  GI50: 2.89 µM
  TGI: 9.32 µM
A498 renal
  GI50: 10.8 µM
  TGI: 22.8 µM
SNB-75 CNS
  GI50: 1.95 µM
  TGI: 9.68 µM
NCI/ADR-RES ovarian
  GI50: 2.57 µM
  TGI: 12.7 µM
K-562 leukemia
  GI50: 0.476 µM
  TGI: > 100 µM
CAKI-1 renal
  GI50: 1.59 µM
  TGI: 3.2 µM
COLO 205 colon
  GI50: 2.63 µM
  TGI: 6.33 µM
M14 melanoma
  GI50: 2.95 µM
  TGI: 11.7 µM
OVCAR-4 ovarian
  GI50: 2.37 µM
  TGI: 8.87 µM
HCC-2998 colon
  GI50: 1.82 µM
  TGI: 3.32 µM
SN12C renal
  GI50: 1.21 µM
  TGI: 8.38 µM
PC-3 prostate
  GI50: 1.35 µM
  TGI: 4.19 µM
LOX IMVI melanoma
  GI50: 1.4 µM
  TGI: 2.76 µM
MOLT-4 leukemia
  GI50: 0.791 µM
  TGI: 14.4 µM
NCI-H226 lung
  GI50: 3.11 µM
  TGI: 31.4 µM
KM12 colon
  GI50: 1.4 µM
  TGI: 3.02 µM
SK-OV-3 ovarian
  GI50: 15.2 µM
  TGI: > 100 µM
A549 NSCLC
  GI50: 2.52 µM
  TGI: 6.88 µM
U251 CNS
  GI50: 1.39 µM
  TGI: 3.03 µM
RPMI-8226 leukemia
  GI50: 0.285 µM
  TGI: 0.838 µM
UO-31 renal
  GI50: 0.722 µM
  TGI: 2.03 µM
OVCAR-5 ovarian
  GI50: 2.17 µM
  TGI: 4.5 µM
SF-539 CNS
  GI50: 1.24 µM
  TGI: 2.87 µM
SNB-19 CNS
  GI50: 2.65 µM
  TGI: 9.7 µM
MDA-MB-231 breast
  GI50: 0.648 µM
  TGI: 3.51 µM
OVCAR-3 ovarian
  GI50: 1.14 µM
  TGI: 3.23 µM
NCI-H522 lung
  GI50: 0.196 µM
  TGI: 0.535 µM
786-0 renal
  GI50: 1.3 µM
  TGI: 3.04 µM
RXF 393 renal
  GI50: 1.5 µM
  TGI: 2.95 µM
SK-MEL-5 melanoma
  GI50: 1.57 µM
  TGI: 2.98 µM
UACC-257 melanoma
  GI50: 1.82 µM
  TGI: 4.5 µM
MALME-3M melanoma
  GI50: 1.51 µM
  TGI: 5.15 µM
HS 578T breast
  GI50: 0.259 µM
  TGI: 3 µM
SW-620 colon
  GI50: 1.6 µM
  TGI: 3.68 µM
CCRF-CEM leukemia
  GI50: 0.534 µM
  TGI: 25.9 µM
NCI-H23 lung
  GI50: 1.65 µM
  TGI: 3.38 µM
SK-MEL-28 melanoma
  GI50: 2.59 µM
  TGI: 6.41 µM
HT29 colon
  GI50: 3.62 µM
  TGI: 11.8 µM
ACHN renal
  GI50: 1.53 µM
  TGI: 2.92 µM
MCF7 breast
  GI50: 1.22 µM
  TGI: 10.2 µM
HOP-92 NSCLC
  GI50: 1.27 µM
  TGI: 3.59 µM
HL-60(TB) leukemia
  GI50: 0.517 µM
  TGI: 7.76 µM
T-47D breast
  GI50: 2.47 µM
  TGI: 10.6 µM
MDA-MB-435
  GI50: 1.95 µM
  TGI: 4.74 µM
HCT-15 colon
  GI50: 0.868 µM
  TGI: 3.38 µM
SF-268 CNS
  GI50: 2.1 µM
  TGI: 7.08 µM
NCI-H460 lung
  GI50: 1.98 µM
  TGI: 4.32 µM
DU-145 prostate
  GI50: 2.51 µM
  TGI: 9.36 µM
IGROV1 ovarian
  GI50: 1.83 µM
  TGI: 9.7 µM
TK-10 renal
  GI50: 2.99 µM
  TGI: 7.84 µM
BT-549 breast
  GI50: 2.02 µM
  TGI: 6.98 µM
SF-295 CNS
  GI50: 2.58 µM
  TGI: 6.32 µM
EKVX NSCLC
  GI50: 1.9 µM
  TGI: 5.43 µM

## COc1cc(/C=C/C(=O)c2ccccc2)cc(OC)c1OC
UACC-62 melanoma
  GI50: 2.23 µM
  TGI: 5.7 µM
HCT-116 colon
  GI50: 1.98 µM
  TGI: 4.07 µM
OVCAR-8 ovarian
  GI50: 2.95 µM
  TGI: 11.8 µM
HOP-62 NSCLC
  GI50: 6.06 µM
  TGI: 19.7 µM
A498 renal
  GI50: 12.3 µM
  TGI: 25.3 µM
SNB-75 CNS
  GI50: 10.2 µM
  TGI: 22.2 µM
NCI/ADR-RES ovarian
  GI50: 3.38 µM
  TGI: 15 µM
K-562 leukemia
  GI50: 3.23 µM
  TGI: 10.7 µM
CAKI-1 renal
  GI50: 5.61 µM
  TGI: 19.9 µM
COLO 205 colon
  GI50: 9.32 µM
  TGI: 21.7 µM
M14 melanoma
  GI50: 3.27 µM
  TGI: 11.6 µM
OVCAR-4 ovarian
  GI50: 4.53 µM
  TGI: 19.4 µM
SR leukemia
  GI50: 2.33 µM
  TGI: 6.68 µM
HCC-2998 colon
  GI50: 12.3 µM
  TGI: 25.6 µM
SN12C renal
  GI50: 2.94 µM
  TGI: 10.9 µM
PC-3 prostate
  GI50: 4.54 µM
  TGI: 17.9 µM
MOLT-4 leukemia
  GI50: 2.94 µM
  TGI: 8.13 µM
NCI-H226 lung
  GI50: 2.96 µM
  TGI: 14.3 µM
KM12 colon
  GI50: 3.22 µM
  TGI: 10.2 µM
SK-OV-3 ovarian
  GI50: 4.42 µM
  TGI: 13.8 µM
A549 NSCLC
  GI50: 6.14 µM
  TGI: 23 µM
RPMI-8226 leukemia
  GI50: 2.38 µM
  TGI: 6.29 µM
UO-31 renal
  GI50: 1.86 µM
  TGI: 3.78 µM
OVCAR-5 ovarian
  GI50: 3.95 µM
  TGI: 16.6 µM
SF-539 CNS
  GI50: 2.96 µM
  TGI: 10.1 µM
SNB-19 CNS
  GI50: 12.8 µM
  TGI: 26.8 µM
MDA-MB-231 breast
  GI50: 5.61 µM
  TGI: 20 µM
OVCAR-3 ovarian
  GI50: 4.02 µM
  TGI: 12.9 µM
NCI-H522 lung
  GI50: 1.95 µM
  TGI: 3.88 µM
786-0 renal
  GI50: 2.74 µM
  TGI: 7.36 µM
RXF 393 renal
  GI50: 3.11 µM
  TGI: 11.5 µM
SK-MEL-5 melanoma
  GI50: 4.12 µM
  TGI: 15 µM
UACC-257 melanoma
  GI50: 3.7 µM
  TGI: 15 µM
MALME-3M melanoma
  GI50: 4.83 µM
  TGI: 19.7 µM
HS 578T breast
  GI50: 4.62 µM
  TGI: 39.8 µM
SW-620 colon
  GI50: 2.48 µM
  TGI: 7.2 µM
CCRF-CEM leukemia
  GI50: 1.49 µM
  TGI: 5.89 µM
NCI-H23 lung
  GI50: 7.45 µM
  TGI: 23.3 µM
SK-MEL-28 melanoma
  GI50: 2.29 µM
  TGI: 5.75 µM
HT29 colon
  GI50: 2.47 µM
  TGI: 5.37 µM
ACHN renal
  GI50: 2.31 µM
  TGI: 6.29 µM
MCF7 breast
  GI50: 0.398 µM
  TGI: 10.3 µM
HL-60(TB) leukemia
  GI50: 2.56 µM
  TGI: 6.82 µM
T-47D breast
  GI50: 3.93 µM
  TGI: 20.9 µM
MDA-MB-435
  GI50: 3.06 µM
  TGI: 11.3 µM
HCT-15 colon
  GI50: 1.99 µM
  TGI: 5.26 µM
SF-268 CNS
  GI50: 4.2 µM
  TGI: 17.5 µM
NCI-H460 lung
  GI50: 2.25 µM
  TGI: 5.91 µM
DU-145 prostate
  GI50: 4.92 µM
  TGI: 16.4 µM
IGROV1 ovarian
  GI50: 4.04 µM
  TGI: 14.2 µM
TK-10 renal
  GI50: 10.2 µM
  TGI: 22.2 µM
BT-549 breast
  GI50: 3.79 µM
  TGI: 11.2 µM
SF-295 CNS
  GI50: 10.3 µM
  TGI: 24.2 µM
